Results as given in publication PMC10099431 (ACS Omega, 2023).
Where two headings read alike, the source gives them in different places.

Tests used:
[1] = Equilibrium mole fraction solubility of RST in {PEG400; type: physicochemical
[2] = cited from earlier work
[3] = type: physicochemical; conditions: for 100 δx1,3 (preferential solvation parameter of RST by PEG400) / D (derivative of the Gibbs energy of transfer) / G1,3 (Kirkwood–Buff integral, PEG400–RST) / G2,3 (Kirkwood–Buff integral, water–RST) / Vcor (correlation volume): 0.1 MPa

For `CC(C)c1nc(N(C)S(C)(=O)=O)nc(-c2ccc(F)cc2)c1/C=C/[C@@H](O)C[C@@H](O)CC(=O)[O-].CC(C)c1nc(N(C)S(C)(=O)=O)nc(-c2ccc(F)cc2)c1/C=C/[C@@H](O)C[C@@H](O)CC(=O)[O-].[Ca+2]` [RST, (E)-7-[4-(4-fluorophenyl)-6-isopropyl-2-[methyl(methylsulfonyl)amino]pyrimidin-5-yl]-(3R,5S)-3,5-dihydroxyhept-6-enoic acid, calcium salt (2:1)], the solubility at 3 days ([1]; PEG400) is listed as 6500 µg/mL, the solubility at 3 days ([1]; PEG400 + water cosolvent mixture) is listed as 4140 µg/mL and the elimination half-life ([2]; GastroPlus input parameter) is listed as 19 h. For the same compound, the total clearance ([2]; GastroPlus input parameter) was 0.455 L/h, the volume of distribution ([2]; GastroPlus input parameter) was 2.23 L/kg and the oral bioavailability ([2]; reported) was roughly 20%. For the same compound, the “molecular radius r3” value ([3]; calculated from molar volume) was 0.5 nm, the “100 δx1,3 (preferential solvation parameter of RST by PEG400)” value ([3]; x1 = 0.00, 298.15 K) was 0.00 and the “D (derivative of the Gibbs energy of transfer)” value ([3]; x1 = 0.00, 298.15 K) was “–328.34 kJ·mol^–1”. For the same compound, the “G1,3 (Kirkwood–Buff integral, PEG400–RST)” value ([3]; x1 = 0.00, 298.15 K) was “–2707.6 cm^3·mol^–1”, the “G2,3 (Kirkwood–Buff integral, water–RST)” value ([3]; x1 = 0.00, 298.15 K) was “–313.7 cm^3·mol^–1” and the “Vcor (correlation volume)” value ([3]; x1 = 0.00, 298.15 K) was 1163 cm^3·mol^–1. The “100 δx1,3 (preferential solvation parameter of RST by PEG400)” value ([3]; x1 = 0.05, 298.15 K) was 0.01, the “D (derivative of the Gibbs energy of transfer)” value ([3]; x1 = 0.05, 298.15 K) was “–31.52 kJ·mol^–1” and the “G1,3 (Kirkwood–Buff integral, PEG400–RST)” value ([3]; x1 = 0.05, 298.15 K) was “–488.9 cm^3·mol^–1”. For the same compound, the “G2,3 (Kirkwood–Buff integral, water–RST)” value ([3]; x1 = 0.05, 298.15 K) was “–491.2 cm^3·mol^–1”, the “Vcor (correlation volume)” value ([3]; x1 = 0.05, 298.15 K) was 1589 cm^3·mol^–1 and the “100 δx1,3 (preferential solvation parameter of RST by PEG400)” value ([3]; x1 = 0.10, 298.15 K) was 0.31. The “D (derivative of the Gibbs energy of transfer)” value ([3]; x1 = 0.10, 298.15 K) was “–9.90 kJ·mol^–1”, the “G1,3 (Kirkwood–Buff integral, PEG400–RST)” value ([3]; x1 = 0.10, 298.15 K) was “–358.4 cm^3·mol^–1” and the “G2,3 (Kirkwood–Buff integral, water–RST)” value ([3]; x1 = 0.10, 298.15 K) was “–412.8 cm^3·mol^–1”. For the same compound, the “Vcor (correlation volume)” value ([3]; x1 = 0.10, 298.15 K) was 1980 cm^3·mol^–1, the “100 δx1,3 (preferential solvation parameter of RST by PEG400)” value ([3]; x1 = 0.15, 298.15 K) was 0.71 and the “D (derivative of the Gibbs energy of transfer)” value ([3]; x1 = 0.15, 298.15 K) was “–10.32 kJ·mol^–1”. The “G1,3 (Kirkwood–Buff integral, PEG400–RST)” value ([3]; x1 = 0.15, 298.15 K) was “–353.1 cm^3·mol^–1”, the “G2,3 (Kirkwood–Buff integral, water–RST)” value ([3]; x1 = 0.15, 298.15 K) was “–458.2 cm^3·mol^–1” and the “Vcor (correlation volume)” value ([3]; x1 = 0.15, 298.15 K) was 2343 cm^3·mol^–1. For the same compound, the “100 δx1,3 (preferential solvation parameter of RST by PEG400)” value ([3]; x1 = 0.20, 298.15 K) was 1.05, the “D (derivative of the Gibbs energy of transfer)” value ([3]; x1 = 0.20, 298.15 K) was “–9.89 kJ·mol^–1” and the “G1,3 (Kirkwood–Buff integral, PEG400–RST)” value ([3]; x1 = 0.20, 298.15 K) was “–346.4 cm^3·mol^–1”. The “G2,3 (Kirkwood–Buff integral, water–RST)” value ([3]; x1 = 0.20, 298.15 K) was “–492.0 cm^3·mol^–1”, the “Vcor (correlation volume)” value ([3]; x1 = 0.20, 298.15 K) was 2680 cm^3·mol^–1 and the “100 δx1,3 (preferential solvation parameter of RST by PEG400)” value ([3]; x1 = 0.25, 298.15 K) was 1.29. For the same compound, the “D (derivative of the Gibbs energy of transfer)” value ([3]; x1 = 0.25, 298.15 K) was “–8.96 kJ·mol^–1”, the “G1,3 (Kirkwood–Buff integral, PEG400–RST)” value ([3]; x1 = 0.25, 298.15 K) was “–339.9 cm^3·mol^–1” and the “G2,3 (Kirkwood–Buff integral, water–RST)” value ([3]; x1 = 0.25, 298.15 K) was “–513.6 cm^3·mol^–1”. The “Vcor (correlation volume)” value ([3]; x1 = 0.25, 298.15 K) was 2997 cm^3·mol^–1, the “100 δx1,3 (preferential solvation parameter of RST by PEG400)” value ([3]; x1 = 0.30, 298.15 K) was 1.45 and the “D (derivative of the Gibbs energy of transfer)” value ([3]; x1 = 0.30, 298.15 K) was “–7.95 kJ·mol^–1”. For the same compound, the “G1,3 (Kirkwood–Buff integral, PEG400–RST)” value ([3]; x1 = 0.30, 298.15 K) was “–334.6 cm^3·mol^–1”, the “G2,3 (Kirkwood–Buff integral, water–RST)” value ([3]; x1 = 0.30, 298.15 K) was “–529.0 cm^3·mol^–1” and the “Vcor (correlation volume)” value ([3]; x1 = 0.30, 298.15 K) was 3297 cm^3·mol^–1. For the same compound, the “100 δx1,3 (preferential solvation parameter of RST by PEG400)” value ([3]; x1 = 0.35, 298.15 K) was 1.54, the “D (derivative of the Gibbs energy of transfer)” value ([3]; x1 = 0.35, 298.15 K) was “–7.01 kJ·mol^–1” and the “G1,3 (Kirkwood–Buff integral, PEG400–RST)” value ([3]; x1 = 0.35, 298.15 K) was “–330.5 cm^3·mol^–1”. The “G2,3 (Kirkwood–Buff integral, water–RST)” value ([3]; x1 = 0.35, 298.15 K) was “–542.0 cm^3·mol^–1”, the “Vcor (correlation volume)” value ([3]; x1 = 0.35, 298.15 K) was 3585 cm^3·mol^–1 and the “100 δx1,3 (preferential solvation parameter of RST by PEG400)” value ([3]; x1 = 0.40, 298.15 K) was 1.60. The “D (derivative of the Gibbs energy of transfer)” value ([3]; x1 = 0.40, 298.15 K) was “–6.19 kJ·mol^–1”, the “G1,3 (Kirkwood–Buff integral, PEG400–RST)” value ([3]; x1 = 0.40, 298.15 K) was “–327.6 cm^3·mol^–1” and the “G2,3 (Kirkwood–Buff integral, water–RST)” value ([3]; x1 = 0.40, 298.15 K) was “–554.7 cm^3·mol^–1”. For the same compound, the “Vcor (correlation volume)” value ([3]; x1 = 0.40, 298.15 K) was 3863 cm^3·mol^–1, the “100 δx1,3 (preferential solvation parameter of RST by PEG400)” value ([3]; x1 = 0.45, 298.15 K) was 1.64 and the “D (derivative of the Gibbs energy of transfer)” value ([3]; x1 = 0.45, 298.15 K) was “–5.48 kJ·mol^–1”. The “G1,3 (Kirkwood–Buff integral, PEG400–RST)” value ([3]; x1 = 0.45, 298.15 K) was “–325.4 cm^3·mol^–1”, the “G2,3 (Kirkwood–Buff integral, water–RST)” value ([3]; x1 = 0.45, 298.15 K) was “–568.4 cm^3·mol^–1” and the “Vcor (correlation volume)” value ([3]; x1 = 0.45, 298.15 K) was 4133 cm^3·mol^–1. The “δx1,3, highest preferential solvation parameter of RST by PEG400” value ([3]; x1 = 0.5, 298.15 K) was 1.65 × 10^–2, the “100 δx1,3 (preferential solvation parameter of RST by PEG400)” value ([3]; x1 = 0.50, 298.15 K) was 1.65 and the “D (derivative of the Gibbs energy of transfer)” value ([3]; x1 = 0.50, 298.15 K) was “–4.88 kJ·mol^–1”. The “G1,3 (Kirkwood–Buff integral, PEG400–RST)” value ([3]; x1 = 0.50, 298.15 K) was “–323.8 cm^3·mol^–1”, the “G2,3 (Kirkwood–Buff integral, water–RST)” value ([3]; x1 = 0.50, 298.15 K) was “–584.0 cm^3·mol^–1” and the “Vcor (correlation volume)” value ([3]; x1 = 0.50, 298.15 K) was 4396 cm^3·mol^–1. For the same compound, the “100 δx1,3 (preferential solvation parameter of RST by PEG400)” value ([3]; x1 = 0.55, 298.15 K) was 1.64, the “D (derivative of the Gibbs energy of transfer)” value ([3]; x1 = 0.55, 298.15 K) was “–4.36 kJ·mol^–1” and the “G1,3 (Kirkwood–Buff integral, PEG400–RST)” value ([3]; x1 = 0.55, 298.15 K) was “–322.8 cm^3·mol^–1”. The “G2,3 (Kirkwood–Buff integral, water–RST)” value ([3]; x1 = 0.55, 298.15 K) was “–601.8 cm^3·mol^–1”, the “Vcor (correlation volume)” value ([3]; x1 = 0.55, 298.15 K) was 4652 cm^3·mol^–1 and the “100 δx1,3 (preferential solvation parameter of RST by PEG400)” value ([3]; x1 = 0.60, 298.15 K) was 1.61. The “D (derivative of the Gibbs energy of transfer)” value ([3]; x1 = 0.60, 298.15 K) was “–3.92 kJ·mol^–1”.
